# Measured values as given in patent publication US8648116B2, “Derivatives of N-(arylamino) sulfonamides including polymorphs as inhibitors of MEK as well as compositions, methods of use and methods for preparing the same” (Ardea Biosciences, Inc., priority 2005, dated 2014).
# Columns and labels:
# A375 cells = assay: Cytotoxic lysis by adenylate kinase (AK) release, 48 hr; type: cell-based, human
# Experimental: Cell supernatants were analyzed for cytotoxic lysis by measuring adenylate kinase (AK) release. […] The lack of AK release was confirmed for all cell lines tested.
# 100% viability (ATP assay) was determined in vehicle only control wells.
# [1] = Plasma concentrations in mice (Example 94F); type: in vivo, nu/nu mice; details: for Cmin / Cmin Free Fraction / AUC / Cmax: A375-bearing nu/nu mice; for AUC / Cmax: female, nu/nu, mouse, plasma, po
# [2] = tested on: orthotopic Hep3B2.1-7 human hepatic carcinoma; assay: Growth response of orthotopic Hep3B tumors in nude mice; type: in vivo, BALB/c nu/nu mice
# Experimental: Female BALB/c nu/nu mice (University of Adelaide, Waite Campus, SA, Australia), aged 10-14 weeks, with a body weight range: of 19.1-29.94 g (mean 22.95 g) were used for the study. The mice were divided into 6 Study groups (4 treatment groups and 2 control groups) as follows: • Number of Mice per Group: 10 in Groups 1 to 5 inclusive • 15 in ‘Take-Rate’ Control Group (Group 6)
# Hep3B human hepatic carcinoma cells (Passage 2 from working stock VP-Stock 353) were cultured in RPMI1640 cell culture medium, which was supplemented with 10% FBS and penicillin-streptomycin (501 U/mL final concentration). The cells were harvested by trypsinisation, washed twice in HBSS and counted. The cells were then resuspended in HBSS:Matrigel (1:1, v/v) and adjusted to a final volume containing 1×10^8 cells/mL. Prior to inoculation, the incision site was liberally swabbed with alcohol and an incision made through the abdominal wall to expose the liver. The needle was introduced through the surface of the liver where 10 μL of cells (1×10^6 cells) were discharged. The needle was held in this position for approximately 30 seconds to allow the Matrigel® to polymerize in order to avoid leakage of tumor cells into the abdominal cavity.
# Treatment commenced 14 days post-inoculation. On Day 7 of the study (21 days post-inoculation), all mice from the ‘Take-Rate’ control group were culled and the livers visually assessed for the presence of tumors.
# A stock solution was prepared weekly and stored at 4° C. Dosing solutions were prepared on each day of administration. […] The compound was administered at doses of 2, 10 and 50 mg/kg.
# Liver and tumor wet weight were measured when each were excised post-mortem on the termination day of the study. At the termination of the study, livers were excised from all mice in each study group and weighed. The number of visible tumors, if present, was counted. These tumors were removed from the liver and weighed.
# A One-Way Analysis of Variance (ANOVA) (All Pairwise Multiple Comparison Procedure and Multiple Comparison versus Control Group) was performed on liver weight and tumor weight data at the end of the study. […] The same statistical analyses were performed on the data for the tumor-bearing mice in the study.
# [3] = human, in vivo
# [4] = tested on: Complete Freund's Adjuvant induced arthritis; assay: Rat adjuvant arthritis inflammation assay; type: in vivo, rats; details: 20 mg/kg orally for 5 days
# Experimental: In the rat adjuvant induced arthritis model, Complete Freund's Adjuvant (CFA) is injected into the right hind paw of rats to induce pathologies similar to rheumatoid arthritis in humans. Compound A was administered orally for 5 consecutive days at 2, 6, and 20 mg/kg. Dexamethasone at 5 m g/kg was also administered orally for 5 days. Enbrel at 10 mg/kg was administered by subcutaneous injection on days 1 and 4. CFA was injected into the right hind paw one hour after the first dose on day 1. […] Polyarthritis was scored as the presence of swelling in front paws, tail, nose or ear.
# [5] = tested on: COLO 205 human colon carcinoma xenografts; assay: Activity against subcutaneous COLO 205 xenografts (Example 118)
# Experimental: Dosing solutions of Compound A were prepared fresh daily by dissolving the required amount of compound in 100% Cremophor EL, and then diluting ten-fold with normal saline. Final dosing solution concentrations were 2.5, 5, 10, or 20 mg/mL, in order to provide respective doses of 25, 50, 100 or 200 mg/kg in a dosing volume of 10 mL/kg. Paclitaxel (Natural Pharmaceuticals, Inc.) was prepared fresh on each day of dosing in a vehicle consisting of 5% ethanol and 5% Cremophor EL in 90% D5W (5% EC vehicle).
# Group 1 received the formulation vehicle (10% Cremophor EL in saline), and served as the tumor growth control group. Group 2 received the reference drug paclitaxel administered on its optimal schedule in nude mice (30 mg/kg i.v. qod×5). […] All doses were scaled to the weight of the animal (0.2 mL per 20 grams body weight).
# Tumors were measured twice each week using calipers. […] Therefore endpoint tumor size of 800 mm^3 was used for analysis of tumor growth delay (TGD).
# [formula] where b is the intercept and m is the slope of the line obtained by linear regression of a log-transformed tumor growth data set.
# [6] = oral, column 1, no head (b1249 order: 50 mg/kg QD)
# [7] = oral, column 2, no head (b1249 order: 25 mg/kg BID)
# [8] = oral, column 3, no head (b1249 order: second 50 mg/kg QD)
# [9] = oral, column 4, no head (b1249 order: 12.5 mg/kg BID)
# [10] = 50 mg/kg, oral, column 1, no head (b1249 order: 50 mg/kg QD)
# [11] = 50 mg/kg, oral, column 3, no head (b1249 order: second 50 mg/kg QD)
# [12] = Compound A 2 mg/kg p.o. once daily Day 0 to 18, tumor-bearing mice
# [13] = Compound A 10 mg/kg p.o. once daily Day 0 to 18, tumor-bearing mice
# [14] = Compound A 50 mg/kg p.o. once daily Day 0 to 18, tumor-bearing mice
# [15] = Group 3, 50 mg/kg po qd × 14 per the 39th table (25 mg/kg p.o. qd×14), n=9
# [16] = Group 4, 25 mg/kg po bid × 14 first day 1 dose per the 39th table (50 mg/kg p.o. qd×14), n=9
# [17] = Group 5, 25 mg/kg po qd × 14 per the 39th table (100 mg/kg p.o. qd×14), n=9
# [18] = Group 6, 12.5 mg/kg po bid × 14 first day 1 dose per the 39th table (200 mg/kg p.o., discontinued after six days), n=9
structure (smiles),measurement,setting,value
COc1cc(F)c(F)c(Nc2ccc(I)cc2F)c1NS(=O)(=O)C1(C[C@H](O)CO)CC1,"AK, Cell killing, % Control",A375 cells; 1 uM,4%
same,cytotoxic cell lysis (AK release),A375 cells; 100% cell killing with 20 μM tamoxifen,lack of cytotoxic cell lysis
same,half-life,"[1]; mouse efficacy model, typical range",2 to 3 h
same,liver and tumor weight,"[2]; 2, 10 and 50 mg/kg p.o. once daily",dose-dependent trend in the decrease
same,average weight of the tumors vs Vehicle Control,"[2]; tumor-bearing mice, 10 mg/kg p.o. once daily",significantly different
same,average weight of the tumors vs Vehicle Control,"[2]; tumor-bearing mice, 50 mg/kg p.o. once daily",significantly different
same,average weight of the liver vs Vehicle Control,"[2]; tumor-bearing mice, 50 mg/kg p.o. once daily, p<0.05",significantly different
same,half-lives,[3],13 to 15 h
COc1cc(F)c(F)c(Nc2ccc(I)cc2F)c1NS(=O)(=O)C1(C[C@H](O)CO)CC1 [Compound A],Cmin,[1]; [6],60 ng/mL
same,Cmin Free Fraction,[1]; [6],0.117 ng/mL
same,Cmin,[1]; [7],1240 ng/mL
same,Cmin Free Fraction,[1]; [7],2.48 ng/mL
same,Cmin,[1]; [8],30 ng/mL
same,Cmin Free Fraction,[1]; [8],0.059 ng/mL
same,Cmin,[1]; [9],490 ng/mL
same,Cmin Free Fraction,[1]; [9],0.986 ng/mL
same,AUC,[1]; 12.5 mg/kg,78000 ng·h/mL
same,Cmax,[1]; 12.5 mg/kg,7800 ng/mL
same,AUC,[1]; 25 mg/kg,117000 ng·h/mL
same,Cmax,[1]; 25 mg/kg,10200 ng/mL
same,AUC,[1]; [10],132000 ng·h/mL
same,Cmax,[1]; [10],23800 ng/mL
same,AUC,[1]; [11],66500 ng·h/mL
same,Cmax,[1]; [11],11900 ng/mL
same,No. of Mice with Tumors (out of 10),[2]; Compound A 2 mg/kg p.o. once daily Day 0 to 18,6
same,Average Liver Weight,[2]; [12],2.775 g
same,Average Tumor Weight,[2]; [12],1.776 g
same,No. of Mice with Tumors (out of 10),[2]; Compound A 10 mg/kg p.o. once daily Day 0 to 18,7
same,Average Liver Weight,[2]; [13],2.551 g
same,Average Tumor Weight,[2]; [13],1.407 g
same,No. of Mice with Tumors (out of 10),[2]; Compound A 50 mg/kg p.o. once daily Day 0 to 18,4
same,Average Liver Weight,[2]; [14],1.677 g
same,Average Tumor Weight,[2]; [14],0.624 g
same,animals without front paw swelling (polyarthritis scoring),[4],2 of 6
same,animals without swelling in the tail (polyarthritis scoring),[4],4 of 6
same,inhibition of paw swelling,[4]; acute and delayed phases,significant reduction in swelling
same,TGD,[5]; 25 mg/kg p.o. qd×14,3%
same,TGD,[5]; 50 mg/kg p.o. qd×14,46%
same,TGD,[5]; 100 mg/kg p.o. qd×14,maximum TGD possible
same,relation to the MTD,[5]; 200 mg/kg p.o. once daily,above the MTD
same,TR deaths,"[5]; 200 mg/kg p.o., dosing stopped after Day 6",3/9
same,Median TTE,"[5]; Group 3, 25 mg/kg p.o. qd×14",47.9 days
same,% TGD,[5]; [15],17%
same,MTV (n) Day 74,[5]; [15],0 (3)
same,Median TTE,[5]; [15],47.9 days
same,No of CR,[5]; [15],0
same,No of NTR (non-treatment-related deaths),[5]; [15],2
same,No of PR,[5]; [15],1
same,No of TFS,[5]; [15],0
same,No of TR (treatment-related deaths),[5]; [15],2
same,"SS (statistical significance, logrank vs Group 1)",[5]; [15],ns
same,T − C,[5]; [15],6.9 days
same,% TGD,[5]; [16],44%
same,MTV (n) Day 74,[5]; [16],195 (1)
same,Median TTE,[5]; [16],59.1 days
same,No of CR,[5]; [16],0
same,No of NTR (non-treatment-related deaths),[5]; [16],0
same,No of PR,[5]; [16],4
same,No of TFS,[5]; [16],0
same,No of TR (treatment-related deaths),[5]; [16],0
same,"SS (statistical significance, logrank vs Group 1)",[5]; [16],ns
same,T − C,[5]; [16],18.1 days
same,Median TTE,"[5]; Group 4, 50 mg/kg p.o. qd×14",59.1 days
same,% TGD,[5]; [17],80%
same,MTV (n) Day 74,[5]; [17],320 (5)
same,Median TTE,[5]; [17],74.0 days
same,No of CR,[5]; [17],0
same,No of NTR (non-treatment-related deaths),[5]; [17],0
same,No of PR,[5]; [17],4
same,No of TFS,[5]; [17],0
same,No of TR (treatment-related deaths),[5]; [17],1
same,"SS (statistical significance, logrank vs Group 1)",[5]; [17],ns
same,T − C,[5]; [17],33.0 days
same,Median TTE,"[5]; Group 5, 100 mg/kg p.o. qd×14",74.0 days
same,% TGD,[5]; [18],41%
same,MTV (n) Day 74,[5]; [18],0 (3)
same,Median TTE,[5]; [18],57.8 days
same,No of CR,[5]; [18],3
same,No of NTR (non-treatment-related deaths),[5]; [18],2
same,No of PR,[5]; [18],1
same,No of TFS,[5]; [18],0
same,No of TR (treatment-related deaths),[5]; [18],2
same,T − C,[5]; [18],16.8 days
